# Measured values: PMC9207888, “Hydride Transfer Mechanism of Enzymatic Sugar Nucleotide C2 Epimerization Probed with a Loose-Fit CDP-Glucose Substrate” (ACS Catalysis, 2022)
# How the values were obtained:
# Format in all cases: binding
# [1] = target: T1, TaCPa2E (Thermodesulfatator atlanticus CDP-paratose 2-epimerase; C2 epimerase) (Thermodesulfatator atlanticus, UniProt Z9RN36Q305); test: HPLC quantification of coenzyme released from denatured purified enzyme; conditions: resting enzyme without substrate, 60 °C, pH 7.5
# T1 construct: C-terminal His-tag, pET21a, expressed in E. coli BL21(DE3); 39362 g/mol functional monomer; catalytic Tyr164; SDR superfamily
# T1 sequence (Z9RN36Q305 1-340): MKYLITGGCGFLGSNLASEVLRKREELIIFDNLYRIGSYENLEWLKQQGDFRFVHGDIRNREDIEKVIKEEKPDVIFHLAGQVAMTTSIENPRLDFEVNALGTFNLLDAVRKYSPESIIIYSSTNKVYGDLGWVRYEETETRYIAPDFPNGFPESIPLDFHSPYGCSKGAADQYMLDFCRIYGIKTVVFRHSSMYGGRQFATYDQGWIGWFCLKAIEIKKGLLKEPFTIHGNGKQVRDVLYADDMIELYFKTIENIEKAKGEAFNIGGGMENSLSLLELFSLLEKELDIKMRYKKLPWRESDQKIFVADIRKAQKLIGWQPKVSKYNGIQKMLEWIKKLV
# Text: HPLC quantification of coenzyme released from denatured purified enzyme on TaCPa2E (Thermodesulfatator atlanticus CDP-paratose 2-epimerase; C2 epimerase) | the NADH content of the resting enzyme in the absence of the substrate
# [2] = target: T2, TaCPa2E (Thermodesulfatator atlanticus CDP-paratose 2-epimerase; C2 epimerase) (Thermodesulfatator atlanticus, UniProt Z9RN36Q305, Y164F); test: co-purified coenzyme in isolated variant; conditions: tightly bound
# T2 construct: C-terminal His-tag, pET21a, expressed in E. coli BL21(DE3); 39362 g/mol functional monomer; catalytic Tyr164; SDR superfamily
# [3] = target: T1, TaCPa2E (Thermodesulfatator atlanticus CDP-paratose 2-epimerase; C2 epimerase); test: HPLC of coenzyme released from denatured purified enzyme; conditions: tightly bound, co-purified; extraction not quantitative
SMILES,portion of enzyme-NADH in resting enzyme [1] [%],co-purified coenzyme in isolated variant [2],HPLC of coenzyme released from denatured purified enzyme [3]
NC(=O)C1=CN([C@@H]2O[C@H](COP(=O)(O)OP(=O)(O)OC[C@H]3O[C@@H](n4cnc5c(N)ncnc54)[C@H](O)[C@@H]3O)[C@@H](O)[C@H]2O)C=CC1 [NADH],4.15 ± 1.0,–,–
NC(=O)c1ccc[n+]([C@@H]2O[C@H](COP(=O)(O)OP(=O)(O)OC[C@H]3O[C@@H](n4cnc5c(N)ncnc54)[C@H](O)[C@@H]3O)[C@@H](O)[C@H]2O)c1 [NAD^+],–,The purified variant contained tightly bound NAD^+,enzyme-bound NAD^+ could not be extracted from TaCPa2E reliably
